Measured values published in patent publication US20100278849A1, “PROSTATIC ACID PHOSPHATASE ANTIGENS” (priority 2004, published 2010).
“Also recorded” adds a separate entry of the source.

What was measured:
Format in all cases: cell-based
HLA-A2*0201 = HLA-A2*0201 (Homo sapiens, UniProt P04439, D140Y/D185E/D98H/E176V/E277Q/G131W/G231S/I119V/I121R/I166T/I218V/L300P/L318F/N151K/N90K/P208A/P217A/Q86G/Q94H/R138H/R169H/T345S); conditions: peptide at 100, 10 and 1 μM; compared with positive control influenza M1 peptide; three independent experiments
HLA-DRβ1*0101 = assay: Proliferation of splenocytes from immunised HLA-DR1 mice with peptide-pulsed BM-DC (tritiated thymidine); conditions: for proliferative response of splenocytes from HLA-DR1 mice: FVB/N-DR1 / HLA-DRβ1*0101 transgenic mice; for number of HLA-DR1 mice whose splenocytes demonstrated specific proliferation: responding/total mice, after re-stimulation in vitro with relevant peptide
Experimental: (§1) HLA-A2.1/K^b mice were immunised with an emulsion consisting of 100 μg of the putative class-I peptide epitope and 100 μg of non-specific class-II peptide derived from hepatitis B virus in 50% incomplete Freund's adjuvant (IFA). HLA-DR4- and HLA-DR1-transgenic mice were immunised twice at one week interval with 100 μg of class-II peptide emulsified in 50% incomplete Freund's adjuvant (IFA) and 50% PBS. All vaccine were delivered as a 100 μl intradermal bolus inoculum at the base of the tail.
(§2) 0DC were generated using a method adapted from Inaba et al (Inaba et al. 1992). Briefly, femurs and tibias were harvested aseptically from non-immunised DR1 or DR4 transgenic mice and placed in sterile PBS supplemented with 50 IU/ml penicillin, 50 μg/ml streptomycin, and 0.25 μg/ml fungizone. The marrow was flushed out of the bone using BM-DC media (RPMI 1640 medium supplemented with 2 mM glutamine, 5% FCS, 10 mM Hepes, 501M 2-ME, 50 μg/ml penicillin, 50 μg/ml streptomycin, 0.25 μg/ml fungisone and 10% of supernatant collected from X-63 cells). The cells were washed once in BM-DC media and plated in 24-well plates at 10^6/well in 1 ml DC media and incubated at 37° C. in a 5% CO2 humidified atmosphere. On days 2 and 4, the non-adherent cells (T cells, B cells, granulocytes) were removed, and the remaining cells were cultured in fresh DC medium. After 7-9 days, clusters of loosely adherent DC were dislodged and collected by gently pipetting, before being washed and seeded in 24-well plates at 0.5×10^6 cells/well in 1 ml DC media. Peptides were added at 1 μg/well and the plates were incubated at 37° C. 1 μg/ml of LPS was added after 5 hours, and the plates were incubated overnight at 37° C. in a 5% CO2 in air-humidified atmosphere.
(§3) After 6 days, the spleens from immunised animals were collected and the cells flushed out using T cell media (RPMI+10% FCS+20 mM HEPES buffer+50 μM 2-mercaptoethanol+50 U/ml penicillin/streptomycin+0.25 μg/ml fungizone). The remaining splenic tissue was digested using an enzyme cocktail (0.1 U/ml DNAase (Sigma)+1.6 mg/ml collagenase (Sigma)) for 1 hour at 37° C. The cell suspension obtained was pooled with the flushed cells, washed once, and the splenocytes were plated in 24 well plates with 10 μg/ml of peptide at a density of 2.5×10^6/ml for FVB/N-DR1 or 3.5×10^6/ml for C57BL/6-DR4. Cells were also cultured with an irrelevant peptide as a control. To measure cytokine production, culture supernatants were collected on day 2 and 5 of the culture for the measurement of cytokine by ELISA.
Splenocytes from immunised animals cultured for 6 days in the presence of 10 μg of the test peptide were harvested, washed and counted. CD8+ T cells were depleted from the cell suspension using anti-CD8+ antibody coupled with magnetic beads (Dynal, UK) as per the manufacturers instructions. Cells were then washed in PBS and resuspended at 5×10^5/ml in T cell medium. 100 μl of T cells was then added to all wells. Anti-DR antibody (L243) or isotype control were added to some wells to confirm the MHC specificity of the T-cell response. LPS-treated dendritic cells were harvested, washed and incubated in 1 ml of DC medium with the addition of 10 íg of peptide at 37° C. for 5 hours. After washing, 10^3 peptide-pulsed DC were added to the relevant wells of lymphocyte cultures in 50 íl media. […] Plates were harvested onto 96 Uni/Filter (Packard), the scintillation liquid (Microscint 0, Packard) was added and the plates were counted on a Top-Count counter (Packard). […]

HLA-DRβ1*0401 = assay: Proliferation of splenocytes from immunised HLA-DR4 mice with peptide-pulsed BM-DC (tritiated thymidine); conditions: for effect of anti-HLA-DR antibody (L243) on proliferation: not blocked by isotype control; for proliferation of splenocytes from immunised HLA-DR4 mice: re-stimulated in vitro with peptide for 5 days; for number of HLA-DR4 mice whose splenocytes demonstrated specific proliferation: responding/total mice, after re-stimulation in vitro with relevant peptide
Experimental: as §1, §2, §3
[…] CD8+ T cells were depleted from the cell suspension using anti-CD8+ antibody coupled with magnetic beads (Dynal, UK) as per the manufacturers instructions. Cells were then washed in PBS and resuspended at 5×10^5/ml in T cell medium. 100 μl of T cells was then added to all wells. Anti-DR antibody (L243) or isotype control were added to some wells to confirm the MHC specificity of the T-cell response. LPS-treated dendritic cells were harvested, washed and incubated in 1 ml of DC medium with the addition of 10 íg of peptide at 37° C. for 5 hours. After washing, 10^3 peptide-pulsed DC were added to the relevant wells of lymphocyte cultures in 50 íl media. These plates were then incubated for 3 days at 37° C. in a 5% CO2 in air-humidified atmosphere. Tritriated thymidine was then added to the culture and incubated again for 18 hours. Plates were harvested onto 96 Uni/Filter (Packard), the scintillation liquid (Microscint 0, Packard) was added and the plates were counted on a Top-Count counter (Packard). Results are expressed in counts per minute (cpm) and as a means of the triplicate wells. Statistical analysis was performed using unpaired Student's t test. […]

IFN-γ [1] = assay: Cytokine production by splenocytes of immunised C57BL/6-DR4 mice, ELISA; conditions: relevant versus irrelevant peptide
Experimental: as §3
(§4) Aliquots of supernatants were removed from CTL cultures on days 1 and 5 and on days 2 and 5 from CD4′ T cell cultures and stored at −20° C. until required. ELISA was used to quantitate concentrations of murine IFN-γ and IL-5 (R&D systems, UK).
We further investigated HLA-DR class-II restricted responses to PAP peptides that were predicted to bind to HLA-DR1 and HLA-DR4 according to the evidence-based computer assisted algorithm […]. The peptides displaying high binding scores for both HLA-DR alleles were selected and further studied (Table 1). C57BL/6-DR4 mice were immunised with these predicted HLA-DR-restricted PAP and the proliferative and IFN-γ response to peptide stimulation in vitro was monitored by proliferation assays and cytokine measurements. PAP. 64 and PAP.

IFN-γ [2] = assay: Cytokine production by splenocytes of immunised FVB/N-DR1 mice, ELISA
Experimental: as §3, §4

Row | Sequence | binding to HLA-A2 (T2 cells) (HLA-A2*0201) | proliferative response of splenocytes from HLA-DR1 mice (HLA-DRβ1*0101) | number of HLA-DR1 mice whose splenocytes demonstrated specific proliferation (HLA-DRβ1*0101) | effect of anti-HLA-DR antibody (L243) on proliferation (HLA-DRβ1*0401) | effect of anti-HLA-DR antibody (L243) on proliferation (HLA-DRβ1*0401; listed as PAP. 207) | proliferation of splenocytes from immunised HLA-DR4 mice (HLA-DRβ1*0401) | number of HLA-DR4 mice whose splenocytes demonstrated specific proliferation (HLA-DRβ1*0401) | number of HLA-DR4 mice whose splenocytes demonstrated specific proliferation (HLA-DRβ1*0401; listed as PAP. 207) | IFN-γ production by splenocytes (IFN-γ [1]) | IFN-γ or IL-50 (cytokine) production of splenocytes (IFN-γ [2]) | effect of anti-HLA-DR antibody (L243) on proliferation (HLA-DRβ1*0401; listed as PAP. 64) | number of HLA-DR4 mice whose splenocytes demonstrated specific proliferation (HLA-DRβ1*0401; listed as PAP. 64)
1 | IMYSAHDTTV (listed as Homo sapiens) [PAP.284] | Weak binding |  |  |  |  |  |  |  |  |  |  | 
2 | VLAKELKFV (listed as Homo sapiens) [PAP.30, class-I PAP peptide already known in the art (Peshwa, 1998), reference compound] | strong binding; also recorded: moderate HLA-A2 binding |  |  |  |  |  |  |  |  |  |  | 
3 | SKVYDPLYSESVHNF (listed as Homo sapiens) [PAP.207] |  | failed, with the exception of one out six experiments | 0/5 | inhibited by the addition of L243 antibody | blocked in the presence of L243 antibody | Specific proliferation | 1/6 | 1 out of 6 | not produced specifically | failed, with the exception of one out six experiments |  | 
4 | PQGFGQLTQLGMEQH (listed as Homo sapiens) [PAP.64] |  | failed, with the exception of one out six experiments | 1/6 | inhibited by the addition of L243 antibody |  | Specific proliferation | 2/5 |  | not produced specifically | failed, with the exception of one out six experiments | blocked in the presence of L243 antibody | 2 out of 5
5 | ALASCFCFFC (listed as Homo sapiens) [PAP.15] | no significant binding |  |  |  |  |  |  |  |  |  |  | 
